Measured values from patent US20230219904A1 (SYNGENTA CROP PROTECTION AG, priority 2020, published 2023).

Legend:
Assay type in all cases: in vivo
Conditions in all cases: evaluated after 13 days
Setaria faberi (SETFA) [1] = assay: Pre-emergence herbicidal glasshouse test (Table B1)
Outline: (§1)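 Five-point damage scores (1=0-19% through 5=80-100%) were recorded 13 days after spraying. Pre-emergence treatment came one day after sowing, post-emergence after 8 days; rate 500 g/h unless otherwise indicated.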

[2] = tested on: Abutilon theophrasti (ABUTH); assay: as above
Outline: as §1

[3] = tested on: Amaranthus retoflexus (AMARE); assay: as above
Outline: as §1

[4] = tested on: Echinochloa crus-galh (ECHCG); assay: as above
Outline: as §1

[5] = tested on: Ipomoea hederacea (IPOHE); assay: as above
Outline: as §1

[6] = tested on: Abutilon theophrasti (ABUTH); assay: Post-emergence herbicidal glasshouse test (Table B1)
Outline: as §1

[7] = tested on: Amaranthus retoflexus (AMARE); assay: as above
Outline: as §1

[8] = tested on: Echinochloa crus-galh (ECHCG); assay: as above
Outline: as §1

[9] = tested on: Ipomoea hederacea (IPOHE); assay: as above
Outline: as §1

Setaria faberi (SETFA) [10] = assay: as above
Outline: as §1

Row | SMILES | PRE Application SETFA, percentage damage on five-point scale (Setaria faberi (SETFA) [1]; applied at 500 g/h) | PRE Application ABUTH, percentage damage on five-point scale ([2]; applied at 500 g/h) | PRE Application AMARE, percentage damage on five-point scale ([3]; applied at 500 g/h) | PRE Application ECHCG, percentage damage on five-point scale ([4]; applied at 500 g/h) | PRE Application IPOHE, percentage damage on five-point scale ([5]; applied) | POST Application ABUTH, percentage damage on five-point scale ([6]; applied at 500 g/h) | POST Application AMARE, percentage damage on five-point scale ([7]; applied at 500 g/h) | POST Application ECHCG, percentage damage on five-point scale ([8]; applied at 500 g/h) | POST Application IPOHE, percentage damage on five-point scale ([9]; applied at 500 g/h) | PRE Application SETFA, percentage damage on five-point scale (Setaria faberi (SETFA) [1]; applied at 125 g/ha) | PRE Application ABUTH, percentage damage on five-point scale ([2]; applied at 125 g/ha) | PRE Application AMARE, percentage damage on five-point scale ([3]; applied at 125 g/ha) | PRE Application ECHCG, percentage damage on five-point scale ([4]; applied at 125 g/ha) | PRE Application IPOHE, percentage damage on five-point scale ([5]; applied at 125 g/ha) | POST Application SETFA, percentage damage on five-point scale (Setaria faberi (SETFA) [10]; applied at 125 g/ha) | POST Application ABUTH, percentage damage on five-point scale ([6]; applied at 125 g/ha) | POST Application AMARE, percentage damage on five-point scale ([7]; applied at 125 g/ha) | POST Application IPOHE, percentage damage on five-point scale ([9]; applied at 125 g/ha) | POST Application ECHCG, percentage damage on five-point scale ([8]; applied at 125 g/ha) | POST Application SETFA, percentage damage on five-point scale (Setaria faberi (SETFA) [10]; applied at 500 g/h)
1 | CC(=O)N(C)c1c(OC(F)(F)F)ccc(C(=O)Nc2nnnn2C)c1Cl [Compound 1.003] | 5 (5=80-100%) | 5 (5=80-100%) | 5 (5=80-100%) | 5 (5=80-100%) | 1 (1=0-19%) | 5 (5=80-100%) | 5 (5=80-100%) | 5 (5=80-100%) | 5 (5=80-100%) | – | – | – | – | – | – | – | – | – | – | –
2 | Cn1nnnc1NC(=O)c1ccc(OC(F)(F)F)c(NC(=O)C2(F)CC2)c1Cl [Compound 1.054] | – | – | – | – | – | – | – | – | – | 5 (5=80-100%) | 5 (5=80-100%) | 5 (5=80-100%) | 5 (5=80-100%) | 4 (4=60-79%) | 5 (5=80-100%) | 5 (5=80-100%) | 5 (5=80-100%) | 5 (5=80-100%) | – | –
3 | CCC(C)C(=O)Nc1c(OC(F)(F)F)ccc(C(=O)Nc2nnnn2C)c1Cl (stereo not drawn) [Compound 1.055] | – | – | – | – | – | – | – | – | – | – | 5 (5=80-100%) | 5 (5=80-100%) | 5 (5=80-100%) | 4 (4=60-79%) | 5 (5=80-100%) | 5 (5=80-100%) | 5 (5=80-100%) | 4 (4=60-79%) | 5 (5=80-100%) | –
4 | Cn1nnnc1NC(=O)c1ccc(OC(F)F)c(NC(=O)c2cccc(Cl)n2)c1Cl [Compound 1.083] | – | – | – | – | – | – | – | – | – | 4 (4=60-79%) | 5 (5=80-100%) | 5 (5=80-100%) | – | 3 (3=40-59%) | 4 (4=60-79%) | 4 (4=60-79%) | 4 (4=60-79%) | 4 (4=60-79%) | 2 (2=20-39%) | –
5 | COc1cccc(C(=O)Nc2c(OC(F)F)ccc(C(=O)Nc3nnnn3C)c2Cl)n1 [Compound 1.085] | – | – | – | – | – | – | – | – | – | 3 (3=40-59%) | 5 (5=80-100%) | 4 (4=60-79%) | – | 3 (3=40-59%) | 4 (4=60-79%) | 4 (4=60-79%) | 4 (4=60-79%) | 4 (4=60-79%) | 4 (4=60-79%) | –
6 | Cn1nnnc1NC(=O)c1ccc(OC(F)F)c(NC(=O)c2cc(Cl)ccn2)c1Cl [Compound 1.086] | – | – | – | – | – | – | – | – | – | 4 (4=60-79%) | 5 (5=80-100%) | 5 (5=80-100%) | – | 4 (4=60-79%) | 4 (4=60-79%) | 4 (4=60-79%) | 5 (5=80-100%) | 5 (5=80-100%) | 4 (4=60-79%) | –
7 | Cn1nnnc1NC(=O)c1ccc(OC(F)F)c(NC(=O)c2ncc(Cl)cc2Cl)c1Cl [Compound 1.087] | – | – | – | – | – | – | – | – | – | 4 (4=60-79%) | 4 (4=60-79%) | 5 (5=80-100%) | 1 (1=0-19%) | 4 (4=60-79%) | 4 (4=60-79%) | 4 (4=60-79%) | 4 (4=60-79%) | 4 (4=60-79%) | – | –
8 | Cn1nnnc1NC(=O)c1ccc(OC(F)F)c(NC(=O)c2nc(Cl)ccc2Cl)c1Cl [Compound 1.088] | – | – | – | – | – | – | – | – | – | 5 (5=80-100%) | 4 (4=60-79%) | 5 (5=80-100%) | – | 4 (4=60-79%) | 4 (4=60-79%) | 4 (4=60-79%) | 4 (4=60-79%) | 4 (4=60-79%) | 3 (3=40-59%) | –
9 | Cn1nnnc1NC(=O)c1ccc(OC(F)F)c(NC(=O)c2ncc(F)cc2F)c1Cl [Compound 1.089] | – | – | – | – | – | – | – | – | – | 3 (3=40-59%) | 2 (2=20-39%) | 5 (5=80-100%) | – | 3 (3=40-59%) | 4 (4=60-79%) | 3 (3=40-59%) | 4 (4=60-79%) | 3 (3=40-59%) | 2 (2=20-39%) | –
10 | CCC(=O)N(CC)c1c(OC(F)F)ccc(C(=O)Nc2nnnn2CC)c1Cl [Compound 1.095] | – | – | – | – | – | – | – | – | – | 4 (4=60-79%) | 5 (5=80-100%) | 5 (5=80-100%) | 5 (5=80-100%) | 4 (4=60-79%) | 5 (5=80-100%) | – | 5 (5=80-100%) | 4 (4=60-79%) | 5 (5=80-100%) | –
11 | CCC(=O)Nc1c(OC(F)F)ccc(C(=O)Nc2nnnn2C)c1C(F)(F)F [Compound 1.096] | – | – | – | – | – | – | – | – | – | 1 (1=0-19%) | 3 (3=40-59%) | 4 (4=60-79%) | 1 (1=0-19%) | 3 (3=40-59%) | 3 (3=40-59%) | – | 4 (4=60-79%) | 3 (3=40-59%) | 4 (4=60-79%) | –
12 | CCC(=O)N(C)c1c(OC(F)F)ccc(C(=O)Nc2nnnn2CC)c1Cl [Compound 1.097] | – | – | – | – | – | – | – | – | – | 4 (4=60-79%) | 5 (5=80-100%) | 5 (5=80-100%) | 5 (5=80-100%) | 5 (5=80-100%) | 5 (5=80-100%) | – | 4 (4=60-79%) | 4 (4=60-79%) | 4 (4=60-79%) | –
13 | CCn1nnnc1NC(=O)c1ccc(OC(F)(F)F)c(NC(=O)C(C)(C)C)c1Cl [Compound 1.106] | 5 (5=80-100%) | 5 (5=80-100%) | 5 (5=80-100%) | 5 (5=80-100%) | – | 5 (5=80-100%) | 5 (5=80-100%) | 5 (5=80-100%) | 5 (5=80-100%) | – | – | – | – | – | – | – | – | – | – | 5 (5=80-100%)
14 | Cn1nnnc1NC(=O)c1ccc(OC(F)(F)C(F)F)c(NC(=O)C2CC2)c1Cl [Compound 1.110] | 5 (5=80-100%) | 3 (3=40-59%) | 5 (5=80-100%) | 5 (5=80-100%) | 1 (1=0-19%) | – | 5 (5=80-100%) | 5 (5=80-100%) | 5 (5=80-100%) | – | – | – | – | – | – | – | – | – | – | 5 (5=80-100%)
